Laboratory results: ChEMBL document CHEMBL3046657, “Quantum chemical QSAR study of flavones and their radical-scavenging activity” (Med Chem Res, 2007)

System: Radical scavenging activity
Assay: Antioxidant activity assessed as inhibition of DPPH radical […] at 33 uM after 5 min by spectrophotometric analysis
Type: functional

Point of comparison: `O=C1c2ccc(O)cc2O[C@H](c2ccc(O)c(O)c2)[C@H]1O`, inhibition 91.9%. Against it:
- O=c1cc(-c2ccccc2)oc2cc(O)ccc12 — lower, 2.8%
- O=c1c(O)c(-c2cc(O)c(O)c(O)c2)oc2cc(O)cc(O)c12 — lower, 72.8%
- O=c1c(O)c(-c2ccccc2)oc2cc(O)cc(O)c12 — lower, 91.8%
- O=c1cc(-c2ccccc2)oc2cc(O)cc(O)c12 — lower, 1.1%
- O=c1c(O)c(-c2cc(O)c(O)c(O)c2)oc2cc(O)ccc12 — lower, 82.3%
- O=c1c(O)c(-c2ccc(O)cc2O)oc2cc(O)cc(O)c12 — higher, 96.5%
- O=c1c(O)c(-c2ccccc2)oc2ccccc12 — lower, 66%
- COc1ccc([C@@H]2CC(=O)c3c(O)cc(O)cc3O2)cc1O — lower, 30%
- O=c1c(O)c(-c2ccc(O)c(O)c2)oc2cc(O)ccc12 — lower, 79%
- O=c1cc(-c2ccc(O)cc2)oc2cc(O)cc(O)c12 — lower, 0.7%
- O=C1C[C@@H](c2ccc(O)cc2)Oc2cc(O)cc(O)c21 — lower, 6.3%
- O=C1CC(c2ccccc2)Oc2ccccc21 (stereo not given) — lower, 2.6%
- O=C1c2c(O)cc(O)cc2O[C@H](c2ccc(O)c(O)c2)[C@H]1O — higher, 94.8%
- O=c1c(O)c(-c2ccc(O)c(O)c2)oc2cc(O)cc(O)c12 — lower, 89.8%
- O=c1cc(-c2ccccc2)oc2ccccc12 — lower, 1.5%
- COc1cccc2c(=O)cc(-c3ccccc3)oc12 — lower, 0.7%
- O=c1c(O)c(-c2ccc(O)cc2)oc2cc(O)cc(O)c12 — higher, 93.5%
- COc1cc(-c2oc3cc(O)cc(O)c3c(=O)c2O)cc(O)c1O — lower, 84.6%
- O=c1cc(-c2ccccc2)oc2cccc(O)c12 — lower, 0.6%
